Source: patent US20110306572A1, “COMBINATION THERAPY FOR THE TREATMENT OF CANCER USING COX-2 INHIBITORS AND DUAL InHIBITORS OF EGFR [ErbB1] AND HER-2 [ErbB2]” (TRAGARA PHARMACEUTICALS, INC, priority 2007, published 2011)

Assays:
[1] = patients taking lapatinib; cited from earlier work
[2] = human, in vivo

Structure (SMILES) | patients with common side effects (rash, diarrhea, fatigue, palmar plantar erythrodysesthesia, nausea and vomiting) [1] | gastric or duodenal toxicity [2]
CS(=O)(=O)CCNCc1ccc(-c2ccc3ncnc(Nc4ccc(OCc5cccc(F)c5)c(Cl)c4)c3c2)o1 [Lapatinib, N-(3-chloro-4-{[(3-fluorophenyl)methyl]oxy}phenyl)-6-[5-({[2-methylsulfonyl)ethyl]amino}methyl)-2-furanyl]-4-quinazolinamine bis(4-methylbenzenesulfonate) monohydrate, bis(4-methylbenzenesulfonate) …] | greater than 20 % of patients | –
CCOc1ccc(-c2cc(C)cn2-c2ccc(S(N)(=O)=O)cc2)cc1 [2-(4-ethoxyphenyl)-4-methyl-1-(4-sulfamoylphenyl)-pyrrole] | – | no increase in gastric or duodenal toxicity
